Measurements reported in ChEMBL document CHEMBL5209586, “Membrane potential-based assay for SLC34A1 using HEK293 JumpIn SLC34A1 OE cells” (2022).

Biological target: T1, Sodium-dependent phosphate transport protein 2A (Homo sapiens, UniProt Q06495)
T1 sequence (Q06495 whole entry): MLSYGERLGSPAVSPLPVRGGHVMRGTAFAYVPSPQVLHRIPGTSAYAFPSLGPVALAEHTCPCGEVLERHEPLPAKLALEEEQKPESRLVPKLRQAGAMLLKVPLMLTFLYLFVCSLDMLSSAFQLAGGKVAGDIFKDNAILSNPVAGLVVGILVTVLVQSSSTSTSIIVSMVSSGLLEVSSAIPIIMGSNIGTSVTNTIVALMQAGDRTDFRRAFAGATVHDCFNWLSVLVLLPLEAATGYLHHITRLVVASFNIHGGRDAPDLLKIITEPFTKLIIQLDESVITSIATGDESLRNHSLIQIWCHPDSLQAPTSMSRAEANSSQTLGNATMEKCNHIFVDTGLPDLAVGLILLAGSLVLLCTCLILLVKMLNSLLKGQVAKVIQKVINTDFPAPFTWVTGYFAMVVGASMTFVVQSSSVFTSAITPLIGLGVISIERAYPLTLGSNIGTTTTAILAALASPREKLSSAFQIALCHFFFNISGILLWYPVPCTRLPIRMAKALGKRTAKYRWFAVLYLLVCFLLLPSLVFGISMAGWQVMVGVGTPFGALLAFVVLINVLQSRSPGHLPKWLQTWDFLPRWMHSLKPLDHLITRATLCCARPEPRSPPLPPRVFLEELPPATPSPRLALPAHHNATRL
Description: Substrate uptake by the Sodium-Dependent Phosphate Transport Protein 2A (NPT2a, SLC34A1) as assessed by the fluorescent FLIPR membrane potential dye in HEK-293 JumpIN-SLC34A1 cells (PubChem AID: 1794813)

SMILES | EC50
O=P([O-])(O)O.[K+] [POTASSIUM PHOSPHATE, MONOBASIC] | 39 µM
O=P([O-])([O-])O.[Na+].[Na+] [SODIUM PHOSPHATE, DIBASIC, ANHYDROUS] | 32 µM
